Measurements: article PMC6151437, “Antibacterial Synthetic Peptides Derived from Bovine Lactoferricin Exhibit Cytotoxic Effect against MDA-MB-468 and MDA-MB-231 Breast Cancer Cell Lines” (Molecules : A Journal of Synthetic Chemistry and Natural …, 2017)
Bridge positions count the residues as written; N and C are the ends. Square brackets hold non-standard residues; d marks the D form. Peptide text beside a SMILES is read from it. I, II: the chains in the order shown. Ahx = NCCCCCC(=O)O

Columns and labels:
[1] = not given; remark: listed apart in the source

| Structure (SMILES) | minimum concentration with maximum (optimal) cytotoxic effect | concentration of maximum cytotoxic effect [1] |
| --- | --- | --- |
| N=C(N)NCCC[C@H](NC(=O)[C@H](Cc1c[nH]c2ccccc12)NC(=O)[C@H](CCC(N)=O)NC(=O)[C@H](Cc1c[nH]c2ccccc12)NC(=O)[C@H](CCCNC(=N)N)NC(=O)[C@@H](N)CCCNC(=N)N)C(=O)NCCCC[C@H](NC(=O)[C@H](CCCNC(=N)N)NC(=O)[C@H](Cc1c[nH]c2ccccc12)NC(=O)[C@H](CCC(N)=O)NC(=O)[C@H](Cc1c[nH]c2ccccc12)NC(=O)[C@H](CCCNC(=N)N)NC(=O)[C@@H](N)CCCNC(=N)N)C(=O)NCCCCCC(=O)N[C@@H](CSSC[C@H](NC(=O)CCCCCNC(=O)[C@H](CCCCNC(=O)[C@H](CCCNC(=N)N)NC(=O)[C@H](Cc1c[nH]c2ccccc12)NC(=O)[C@H](CCC(N)=O)NC(=O)[C@H](Cc1c[nH]c2ccccc12)NC(=O)[C@H](CCCNC(=N)N)NC(=O)[C@@H](N)CCCNC(=N)N)NC(=O)[C@H](CCCNC(=N)N)NC(=O)[C@H](Cc1c[nH]c2ccccc12)NC(=O)[C@H](CCC(N)=O)NC(=O)[C@H](Cc1c[nH]c2ccccc12)NC(=O)[C@H](CCCNC(=N)N)NC(=O)[C@@H](N)CCCNC(=N)N)C(N)=O)C(N)=O (I: H-RRWQWRK[Ahx]C-NH2 / II: H-RRWQWRK[Ahx]C-NH2 / III: H-RRWQWR / IV: H-RRWQWR; amide I:7-III:C, II:7-IV:C; disulfide I:9-II:9) | 22 µM |  |
| CSCC[C@H](NC(=O)[C@H](CCCNC(=N)N)NC(=O)[C@H](Cc1c[nH]c2ccccc12)NC(=O)[C@H](CCC(N)=O)NC(=O)[C@H](Cc1c[nH]c2ccccc12)NC(=O)[C@H](CCCNC(=N)N)NC(=O)[C@@H](N)CCCNC(=N)N)C(=O)N[C@@H](CCCCN)C(=O)N[C@@H](CCCCN)C(=O)N[C@@H](CC(C)C)C(=O)NCC(=O)NCCCC[C@H](NC(=O)CNC(=O)[C@H](CC(C)C)NC(=O)[C@H](CCCCN)NC(=O)[C@H](CCCCN)NC(=O)[C@H](CCSC)NC(=O)[C@H](CCCNC(=N)N)NC(=O)[C@H](Cc1c[nH]c2ccccc12)NC(=O)[C@H](CCC(N)=O)NC(=O)[C@H](Cc1c[nH]c2ccccc12)NC(=O)[C@H](CCCNC(=N)N)NC(=O)[C@@H](N)CCCNC(=N)N)C(=O)NCCCCCC(N)=O (I: H-RRWQWRMKKLGK[Ahx]-NH2 / II: H-RRWQWRMKKLG; amide I:12-II:C) |  | 30 µM |
